Experimental data reported in US7879876B2, “Sulfonamide derivatives and use thereof for the modulation of metalloproteinases” (Merck Serono SA, priority 2005, dated 2011).
pIC50: −log10 of the molar value.

Legend:
Assay type in all cases: biochemical
metalloelastase (MMP-12) = metalloelastase (MMP-12) (Homo sapiens, UniProt P39900); test: MMP-12 enzyme inhibition assay (coumarin-labelled peptide substrate); conditions: read-out: IC50 MMP12
Description: (§1) Compounds of the invention were tested to assess their activities as inhibitors of MMP-1, MMP-2, MMP-9, MMP-14, MMP-12 and TACE. MMP-9 Assay Protocol
(§2) Compounds of the invention were tested for inhibitory activity against 92 kDa gelatinase (MMP-9) in an assay using a coumarin-labeled peptide substrate, (7-methoxycoumarin-4-yl)acetyl-Pro-Leu-Gly-Leu-(3-[2,4-dinitrophenyl]-L-2,3diaminopropionyl)-Ala-Arg-NH2 (McaPLGLDpaAR) (Knight et al, FEBS Lett. 1992; 263-266).
(§3) Stock solutions were made up as follows: Assay Butter: 100 mM Tris-HCl pH 7.6 containing 100 mM NaCl, 10 mM CaCl2, and 0.05% Brij 35.
(§4) Substrate: 0.4 mM McaPLGLDpaAR (from Bachem) (0.437 mg/ml) stock solution in 100% DMSO (stored at −20° C.). Dilute to 8 μM in assay butter.
(§5) Enzyme: Recombinant human 92 kDa gelatinase (MMP-9; APMA (4-aminophenyl mercuric acetate)-activated if necessary) appropriately diluted in assay butter.
(§6) Test Compounds were prepared initially as 10 mM compound solution in 100% DMSO, diluted to 1 mM in 100% DMSO, then serially diluted 3-fold in 100% DMSO across columns 1-10 of a 96-well microtitre plate Assay concentration range, 100 μM (column 1) to 5.1 nM (column 10).
(§7) The assay was performed in a total volume of 100 μL per well in 96-well microtitre plates. Activated enzyme (20 μL) was added to the wells followed by 20 μL of assay butter. Appropriate concentrations of test compounds dissolved in 10 μL of DMSO were then added followed by 50 μL of McaPLGLDpaAR (8 μM, prepared by dilution of DMSO stock in assay butter). For each as say ten concentrations of test compound were examined in duplicate. Control wells lack either enzyme or test compound. The reactions were incubated at 37° C. for 2 hours. The fluorescence at 405 nm was measured immediately with an SLT Fluostar fluorometer (SL T Labinstruments GmbH, Grödig, Austria) using 320 nm excitation, without stopping the reaction.
(§8) The effect of the test compound was determined from the dose response curve generated by the 10 duplicate concentrations of inhibitor. The IC50 (the concentration of compound required to give a 50% decrease in enzyme activity) was obtained by fitting data to the equation, Y=a+((b−a)/(1+(c/X)^d)). (Y=inhibition achieved for a particular dose; X=the dose in nM; a=minimum y or zero % inhibition; b=maximum y or 100% inhibition; c=is the IC50; d=is the slope). The result was rounded to one significant figure.
Compounds of the invention were tested for inhibitory activity against metalloelastase (MMP-12) in an assay using a coumarin-labelled peptide substrate, (7-methoxycoumarin-4-yl)acetyl-Pro-Leu-Gly-Leu-(3-[2,4-dinitrophenyl]-L-2,3-diaminopropionyl)-Ala-Arg-NH2 (McaPLGLDpaAR) (Knight et al, 1992, above). The protocol for this assay was as described for the MMP-9 assay above.

[1] = target: 92 kDa gelatinase (MMP-9) (Homo sapiens, UniProt P14780); test: MMP-9 enzyme inhibition assay (coumarin-labeled peptide substrate); conditions: read-out: IC50 MMP9
Sequence of 92 kDa gelatinase (MMP-9) (P14780 107-707 limits assumed): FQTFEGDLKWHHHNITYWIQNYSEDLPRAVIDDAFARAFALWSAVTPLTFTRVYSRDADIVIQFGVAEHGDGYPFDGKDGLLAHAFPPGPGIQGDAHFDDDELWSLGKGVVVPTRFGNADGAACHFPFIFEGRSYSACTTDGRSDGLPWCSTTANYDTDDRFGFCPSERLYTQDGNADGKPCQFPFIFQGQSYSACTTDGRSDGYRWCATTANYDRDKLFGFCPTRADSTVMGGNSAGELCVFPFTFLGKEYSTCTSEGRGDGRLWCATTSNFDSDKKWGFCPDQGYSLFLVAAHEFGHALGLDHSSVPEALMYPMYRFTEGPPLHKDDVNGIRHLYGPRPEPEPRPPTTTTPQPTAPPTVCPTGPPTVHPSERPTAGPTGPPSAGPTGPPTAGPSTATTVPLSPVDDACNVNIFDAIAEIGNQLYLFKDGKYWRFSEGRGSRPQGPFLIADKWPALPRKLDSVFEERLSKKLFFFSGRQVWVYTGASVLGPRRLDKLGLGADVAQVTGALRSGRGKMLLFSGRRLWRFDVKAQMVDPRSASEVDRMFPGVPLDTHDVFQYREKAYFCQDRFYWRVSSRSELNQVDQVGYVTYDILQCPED
Description: as §1, §2, §3, §4, §5, §6, §7, §8

MMP-14 = MMP-14 (Homo sapiens, UniProt P50281); test: MMP-14 enzyme inhibition assay (coumarin-labelled peptide substrate); conditions: @ 5 μM; read-out: percentage inhibition MMP14
Description: as §1, §2, §3, §4, §5, §6, §7, §8
(§9) Compounds of the invention were tested for inhibitory activity against MMP-14 in an assay using a coumarin-labelled peptide substrate, (7-methoxycoumarin-4-yl)acetyl-Pro-Leu-Gly-Leu-(3-[2,4-dinitrophenyl]-L-2,3diaminopropionyl)-Ala-Arg-NH2 (Mca PLGLD paAR) (Knight et al, 1992, above). The protocol for this assay was as described for the MMP-9 assay above.

collagenase (MMP-1) = target: T1, collagenase (MMP-1) (Homo sapiens, UniProt P03956); test: MMP-1 enzyme inhibition assay (coumarin-labelled peptide substrate); conditions: @ 5 μM; read-out: percentage inhibition MMP1
T1 sequence (P03956 100-469): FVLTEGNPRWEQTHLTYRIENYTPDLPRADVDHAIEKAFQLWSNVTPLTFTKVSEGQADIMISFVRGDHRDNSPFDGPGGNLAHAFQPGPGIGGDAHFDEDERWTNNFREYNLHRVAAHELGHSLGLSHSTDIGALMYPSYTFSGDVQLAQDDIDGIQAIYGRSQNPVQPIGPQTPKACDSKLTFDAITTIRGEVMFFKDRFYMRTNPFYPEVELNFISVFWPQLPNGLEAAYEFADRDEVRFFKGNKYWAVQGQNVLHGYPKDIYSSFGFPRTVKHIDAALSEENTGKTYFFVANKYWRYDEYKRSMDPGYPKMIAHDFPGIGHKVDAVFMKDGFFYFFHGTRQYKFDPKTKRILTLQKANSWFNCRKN
Description: as §1, §2, §3, §4, §5, §6, §7, §8
as §9, with “collagenase (MMP-1)” for “MMP-14”, “PLGLDpaAR)” for “PLGLD paAR)”

MMP13 = MMP13 (Homo sapiens, UniProt P45452); test: MMP13 inhibition (Table 1); conditions: @ 5 μM; read-out: percentage inhibition MMP13
gelatinase A (MMP-2) = target: T2, gelatinase A (MMP-2) (Homo sapiens, UniProt P08253); test: MMP-2 enzyme inhibition assay (coumarin-labelled peptide substrate); conditions: read-out: IC50 MMP2
T2 sequence (P08253 110-660): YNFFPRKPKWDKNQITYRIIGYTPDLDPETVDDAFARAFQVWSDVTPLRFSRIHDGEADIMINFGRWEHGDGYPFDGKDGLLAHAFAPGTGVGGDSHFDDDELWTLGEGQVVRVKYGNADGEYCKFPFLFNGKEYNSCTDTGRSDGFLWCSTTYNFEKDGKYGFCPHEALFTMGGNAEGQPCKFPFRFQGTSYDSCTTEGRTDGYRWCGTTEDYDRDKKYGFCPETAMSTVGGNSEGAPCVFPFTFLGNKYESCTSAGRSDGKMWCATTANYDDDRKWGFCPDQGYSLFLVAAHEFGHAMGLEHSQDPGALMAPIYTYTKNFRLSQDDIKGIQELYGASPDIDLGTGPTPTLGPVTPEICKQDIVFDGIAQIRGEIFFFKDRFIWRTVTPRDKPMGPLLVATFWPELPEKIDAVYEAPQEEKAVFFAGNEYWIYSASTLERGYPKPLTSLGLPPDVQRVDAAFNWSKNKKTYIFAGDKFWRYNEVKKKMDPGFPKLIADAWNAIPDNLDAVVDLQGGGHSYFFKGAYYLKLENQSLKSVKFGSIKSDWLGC
Description: Compounds of the invention were tested to assess their activities as inhibitors of MMP-1, MMP-2, MMP-9, MMP-14, MMP-12 and TACE. MMP-9 Assay Protocol […]
as §3
Substrate: 0.4 mM McaPLGLDpaAR (from Bachem) (0.437 mg/ml) stock solution in 100% DMSO (stored at −20° C.). Dilute to 8 μM in assay butter. […]
as §6, §7, §8
as §9, with “gelatinase A (MMP-2)” for “MMP-14”, “PLGLDpaAR)” for “PLGLD paAR)”

Sequence of metalloelastase (MMP-12) (P39900 106-470): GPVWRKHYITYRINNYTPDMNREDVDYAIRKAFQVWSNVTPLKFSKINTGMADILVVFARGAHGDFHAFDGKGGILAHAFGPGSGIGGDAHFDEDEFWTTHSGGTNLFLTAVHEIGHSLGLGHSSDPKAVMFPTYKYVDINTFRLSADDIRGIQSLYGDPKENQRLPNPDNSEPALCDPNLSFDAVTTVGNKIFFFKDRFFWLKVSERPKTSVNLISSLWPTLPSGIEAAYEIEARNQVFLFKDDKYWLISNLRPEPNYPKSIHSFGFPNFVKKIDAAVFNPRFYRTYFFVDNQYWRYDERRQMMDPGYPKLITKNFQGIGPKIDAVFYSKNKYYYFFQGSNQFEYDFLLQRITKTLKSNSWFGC

pIC50 (metalloelastase (MMP-12)): 6.20
pIC50 [1]: < 5.30
inhibition at 5 µM (MMP-14): 8%
inhibition at 5 µM (collagenase (MMP-1)): 5%
inhibition at 5 µM (MMP13): 41%
pIC50 (gelatinase A (MMP-2)): < 5.30
Structure (SMILES): CC(C)(C(CS(=O)(=O)N1CCc2ccccc2C1)N(O)C=O)N1CCOCC1 (stereo not drawn) [Example 8, N-{1-[(3,4-dihydroisoquinolin-2(1H)-ylsulfonyl)methyl]-2-methyl-2-morpholin-4-ylpropyl}-N-hydroxyformamide]
